Measured values as given in patent publication US12459918B2, “Isoquinolinone derivatives serving as rock protein kinase inhibitors and use thereof” (GUANGZHOU OCUSUN OPHTHALMIC BIOTECHNOLOGY CO., LTD., priority 2019, dated 2025).

Key:
Format in all cases: in vivo
[1] = test system: New Zealand rabbits with acute ocular hypertension; experiment: Intraocular pressure reduction experiment in New Zealand rabbits with acute ocular hypertension, experiment operation 1; details: for Intraocular pressure in the left eye: left eye (not modeled); for Intraocular pressure in the right eye: right eye (induced ocular hypertension)
Description: Experimental Example 3. Intraocular Pressure Reduction Experiment in New Zealand Rabbits with Acute Ocular Hypertension
Acute ocular hypertension of rabbits were induced by anterior chamber injection of a viscoelastic agent and the intraocular pressure reduction action of compound 60 and compound 63 at different concentrations were explored by eye-drop administration.
Male New Zealand rabbits, aged 97-127 days, weighted 2.5-3.4 kg, purchased from PizhouDongfang Breeding Co. Ltd.
Male New Zealand rabbits were randomly divided into 8 rabbits/per group according to body weight using a computer-generated randomization method. The animals in each group were injected with medical sodium hyaluronate gel in the anterior chamber of right eye in a single dose, 100 μL/eye, to induce ocular hypertension. In 5-15 minutes, 3 hours and 6 hours after right eye modeling, both eyes were dropped with a solvent, K-115 or test samples (compound 60 at different concentrations) at a volume of 50 μL/eye and intraocular pressure of the animals was measured before administration and in 1, 2, 4, 6, 8 and 10 hours after administration, respectively.

[2] = test system: New Zealand rabbits with normal intraocular pressure; experiment: Ocular stimulation response examination by hand-held slit lamp, 14 days eye-drop administration; details: 4 mg/mL, 14 consecutive days, 50 μL/eye/day
Experimental: (§1) 42 male New Zealand rabbits were randomly divided into 7 groups, with 6 rabbits per group. Animals were randomly divided according to body weight Animals in 1-7 groups were eye-dropped with normal saline in the left eye and with solvent/control sample/test sample in the right eye respectively by a volume of 50 μL/eye, once per day for 14 consecutive days, and the day of administration was recorded as Day 1. The intraocular pressure of the animals was measured before Day 1 administration and in 1, 2, 4, 6, 8 and 10 hours after Day 1 administration, respectively (Table 8).
Before the experiment (Day 2/Day 1), before daily administration during the administration (Days 1-14), and in 1, 2, 4, 24, 48 and 72 hours after the last administration (Day 14), the eyes of animals were examined for ocular stimulation response and fluorescein sodium by a hand-held slit lamp (scoring by referring to the scoring criteria).
Before the experiment (Day 2/Day 1), before the first daily administration (Days 1-14) during the administration, and in 1, 2, 4, 24, 48 and 72 hours after the last administration, the eyes of animals were examined for ocular stimulation response by a hand-held slit lamp. The scoring criteria were as follows. […]

[3] = test system: New Zealand rabbits with normal intraocular pressure; experiment: Repeated eye-drop administration for 14 days, experiment operation 2: Day 1 intraocular pressure; details: Day 1; for Mean intraocular pressure of both eyes: 4 mg/mL in right eye, saline in left; for Change of intraocular pressure: 4 mg/mL, group minus negative control
Description: Experimental example 4. Experiment on reduction of intraocular pressure and ocular toxicity of New Zealand rabbits with normal intraocular pressure by repeated eye-drop administration for 14 days
The intraocular pressure reduction action and the potential ocular toxicity of compound 63 were explored by 14 days of repeated eye-drop administration in rabbits with normal intraocular pressure.
Male New Zealand rabbits, aged 97-127 days, weighted 2.6-3.5 kg, purchased from PizhouDongfang Breeding Co. Ltd.
as §1

[4] = 2.5 mg/mL both eyes, 1 hour after administration
[5] = 2.5 mg/mL both eyes, 2 hours after administration
[6] = 2.5 mg/mL both eyes, 4 hours after administration
[7] = 2.5 mg/mL both eyes, 6 hours after administration
[8] = 2.5 mg/mL both eyes, 8 hours after administration
[9] = 2.5 mg/mL both eyes, 10 hours after administration
[10] = 2.5 mg/mL both eyes, before administration
[11] = 5.0 mg/mL both eyes, 1 hour after administration
[12] = 5.0 mg/mL both eyes, 2 hours after administration
[13] = 5.0 mg/mL both eyes, 4 hours after administration
[14] = 5.0 mg/mL both eyes, 6 hours after administration
[15] = 5.0 mg/mL both eyes, 8 hours after administration
[16] = 5.0 mg/mL both eyes, 10 hours after administration
[17] = 5.0 mg/mL both eyes, before administration
[18] = 10 mg/mL both eyes, 1 hour after administration
[19] = 10 mg/mL both eyes, 2 hours after administration
[20] = 10 mg/mL both eyes, 4 hours after administration
[21] = 10 mg/mL both eyes, 6 hours after administration
[22] = 10 mg/mL both eyes, 8 hours after administration
[23] = 10 mg/mL both eyes, 10 hours after administration
[24] = 10 mg/mL both eyes, before administration

Cc1cn(COC(=O)c2ccccc2)c(=O)c2cccc(S(=O)(=O)N3CCC(N)C3)c12 (centres unmarked) [Compound 60]
Intraocular pressure in the left eye [1, 4]: 5.00 mmHg | Intraocular pressure in the left eye [1, 5]: 6.63 mmHg | Intraocular pressure in the left eye [1, 6]: 8.29 mmHg | Intraocular pressure in the left eye [1, 7]: 10.71 mmHg | Intraocular pressure in the left eye [1, 8]: 12.17 mmHg | Intraocular pressure in the left eye [1, 9]: 12.00 mmHg | Intraocular pressure in the left eye [1, 10]: 12.00 mmHg | Intraocular pressure in the right eye [1, 4]: 22.33 mmHg | Intraocular pressure in the right eye [1, 5]: 19.75 mmHg | Intraocular pressure in the right eye [1, 6]: 20.29 mmHg | Intraocular pressure in the right eye [1, 7]: 17.00 mmHg | Intraocular pressure in the right eye [1, 8]: 14.54 mmHg | Intraocular pressure in the right eye [1, 9]: 12.54 mmHg | Intraocular pressure in the right eye [1, 10]: 12.54 mmHg | Intraocular pressure in the left eye [1, 11]: 4.96 mmHg | Intraocular pressure in the left eye [1, 12]: 5.96 mmHg | Intraocular pressure in the left eye [1, 13]: 8.29 mmHg | Intraocular pressure in the left eye [1, 14]: 11.21 mmHg | Intraocular pressure in the left eye [1, 15]: 11.46 mmHg | Intraocular pressure in the left eye [1, 16]: 11.75 mmHg | Intraocular pressure in the left eye [1, 17]: 11.75 mmHg | Intraocular pressure in the right eye [1, 11]: 21.00 mmHg | Intraocular pressure in the right eye [1, 12]: 16.29 mmHg | Intraocular pressure in the right eye [1, 13]: 16.75 mmHg | Intraocular pressure in the right eye [1, 14]: 14.88 mmHg | Intraocular pressure in the right eye [1, 15]: 13.08 mmHg | Intraocular pressure in the right eye [1, 16]: 11.25 mmHg | Intraocular pressure in the right eye [1, 17]: 11.25 mmHg | Intraocular pressure in the left eye [1, 18]: 4.63 mmHg | Intraocular pressure in the left eye [1, 19]: 5.50 mmHg | Intraocular pressure in the left eye [1, 20]: 9.25 mmHg | Intraocular pressure in the left eye [1, 21]: 10.79 mmHg | Intraocular pressure in the left eye [1, 22]: 11.75 mmHg | Intraocular pressure in the left eye [1, 23]: 12.13 mmHg | Intraocular pressure in the left eye [1, 24]: 12.13 mmHg | Intraocular pressure in the right eye [1, 18]: 19.83 mmHg | Intraocular pressure in the right eye [1, 19]: 17.46 mmHg | Intraocular pressure in the right eye [1, 20]: 15.00 mmHg | Intraocular pressure in the right eye [1, 21]: 12.33 mmHg | Intraocular pressure in the right eye [1, 22]: 11.25 mmHg | Intraocular pressure in the right eye [1, 23]: 12.08 mmHg | Intraocular pressure in the right eye [1, 24]: 12.08 mmHg

C[C@H]1CNCCCN1S(=O)(=O)c1cccc2cncc(F)c12 [Compound K-115, reference compound]
Intraocular pressure in the left eye [1, 18]: 5.88 mmHg | Intraocular pressure in the left eye [1, 19]: 5.96 mmHg | Intraocular pressure in the left eye [1, 20]: 8.29 mmHg | Intraocular pressure in the left eye [1, 21]: 10.54 mmHg | Intraocular pressure in the left eye [1, 22]: 11.88 mmHg | Intraocular pressure in the left eye [1, 23]: 11.79 mmHg | Intraocular pressure in the left eye [1, 24]: 11.79 mmHg | Intraocular pressure in the right eye [1, 18]: 28.79 mmHg | Intraocular pressure in the right eye [1, 19]: 22.67 mmHg | Intraocular pressure in the right eye [1, 20]: 26.08 mmHg | Intraocular pressure in the right eye [1, 21]: 23.25 mmHg | Intraocular pressure in the right eye [1, 22]: 23.25 mmHg | Intraocular pressure in the right eye [1, 23]: 11.92 mmHg | Intraocular pressure in the right eye [1, 24]: 11.92 mmHg | Evaluation of ocular stimulation [2]: no stimulation | Mean intraocular pressure of both eyes ([3]; 1 hour after administration): 5.50 mmHg | Mean intraocular pressure of both eyes ([3]; 2 hours after administration): 7.06 mmHg | Mean intraocular pressure of both eyes ([3]; 4 hours after administration): 9.00 mmHg | Mean intraocular pressure of both eyes ([3]; 6 hours after administration): 9.17 mmHg | Mean intraocular pressure of both eyes ([3]; 8 hours after administration): 10.61 mmHg | Mean intraocular pressure of both eyes ([3]; 10 hours after administration): 12.33 mmHg | Mean intraocular pressure of both eyes ([3]; before administration): 10.17 mmHg | Change of intraocular pressure ([3]; 1 hour after administration): −3.39 mmHg | Change of intraocular pressure ([3]; 2 hours after administration): −2.50 mmHg | Change of intraocular pressure ([3]; 4 hours after administration): −0.89 mmHg | Change of intraocular pressure ([3]; 6 hours after administration): −1.61 mmHg | Change of intraocular pressure ([3]; 8 hours after administration): 0.23 mmHg | Change of intraocular pressure ([3]; 10 hours after administration): 0.17 mmHg | Change of intraocular pressure ([3]; before administration): 0.83 mmHg
